Test results from PubChem BioAssay AID2060484 (Molecular Pharmacology Branch, DTP, NCI, 2025).
pIC50: −log10 of the molar value.

Test system: SUM149PT spheroids with HUVEC/MSC, viability
Experiment: Anticancer human tumor SUM149PT cell line growth inhibition [GQUAD];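 note: spheroids exposed to drugs for seven days before readout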;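 for viability, T/C: percent viability relative to DMSO vehicle control taken as 100%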
Details: for pIC50: curve of first compound; for viability, T/C: stronger effect = lower value; active = viability on the fitted dose curve at most 10% of control; inactive = the rest
Outline: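 Multi-cell-type spheroids of tumor cells with HUVEC and mesenchymal stem cells, treated with drug combinations. Concentrations descend in half-log steps from near clinical Cmax, or from 10 microM where Cmax is unknown; viability read-out.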

[1] = second compound 0.0316 µM, first compound 0.0316 µM
[2] = second compound 0.0316 µM, first compound 0.1 µM
[3] = second compound 0.0316 µM, first compound 0.316 µM
[4] = second compound 0.0316 µM, first compound 1 µM
[5] = second compound 0.0316 µM, first compound 3.16 µM
[6] = second compound 0.0316 µM, first compound 10 µM
[7] = second compound 0.1 µM, first compound 0.0316 µM
[8] = second compound 0.1 µM, first compound 0.1 µM
[9] = second compound 0.1 µM, first compound 0.316 µM
[10] = second compound 0.1 µM, first compound 1 µM
[11] = second compound 0.1 µM, first compound 3.16 µM
[12] = second compound 0.1 µM, first compound 10 µM
[13] = second compound 0.316 µM, first compound 0.0316 µM
[14] = second compound 0.316 µM, first compound 0.1 µM
[15] = second compound 0.316 µM, first compound 0.316 µM
[16] = second compound 0.316 µM, first compound 1 µM
[17] = second compound 0.316 µM, first compound 3.16 µM
[18] = second compound 0.316 µM, first compound 10 µM
[19] = second compound 1 µM, first compound 0.0316 µM
[20] = second compound 1 µM, first compound 0.1 µM
[21] = second compound 1 µM, first compound 0.316 µM
[22] = second compound 1 µM, first compound 1 µM
[23] = second compound 1 µM, first compound 3.16 µM
[24] = second compound 1 µM, first compound 10 µM
[25] = second compound 3.16 µM, first compound 0.0316 µM
[26] = second compound 3.16 µM, first compound 0.1 µM
[27] = second compound 3.16 µM, first compound 0.316 µM
[28] = second compound 3.16 µM, first compound 1 µM
[29] = second compound 3.16 µM, first compound 3.16 µM
[30] = second compound 3.16 µM, first compound 10 µM
[31] = second compound 10 µM, first compound 0.0316 µM
[32] = second compound 10 µM, first compound 0.1 µM
[33] = second compound 10 µM, first compound 0.316 µM
[34] = second compound 10 µM, first compound 1 µM
[35] = second compound 10 µM, first compound 3.16 µM
[36] = second compound 10 µM, first compound 10 µM

Nc1ccn(C2OC(CO)C(O)C2(F)F)c(=O)n1 (stereo not drawn) + Cc1[nH]c2ccc(F)cc2c1-c1nc2c3cccnc3c3ncccc3c2[nH]1
7.08: pIC50 (second compound 0.1 µM)
7.12: pIC50 (second compound 0.0316 µM) | pIC50 (second compound 1 µM)
7.27: pIC50 (second compound 10 µM)
inactive: viability, T/C [1] 82.8% | viability, T/C [2] 39.7% | viability, T/C [3] 22.1% | viability, T/C [4] 20.7% | viability, T/C [5] 17% | viability, T/C [6] 14.1% | viability, T/C [7] 69% | viability, T/C [8] 46.4% | viability, T/C [9] 19% | viability, T/C [10] 17.5% | viability, T/C [11] 16% | viability, T/C [12] 13.9% | viability, T/C [13] 70.4% | viability, T/C [14] 37.5% | viability, T/C [15] 21.6% | viability, T/C [16] 18.7% | viability, T/C [17] 17.5% | viability, T/C [18] 12% | viability, T/C [19] 77.1% | viability, T/C [20] 41.1% | viability, T/C [21] 24.7% | viability, T/C [22] 21% | viability, T/C [23] 17.1% | viability, T/C [24] 12.1% | viability, T/C [25] 75.8% | viability, T/C [26] 37.5% | viability, T/C [27] 20.8% | viability, T/C [28] 18.7% | viability, T/C [29] 15.3% | viability, T/C [30] 12% | viability, T/C [31] 62.8% | viability, T/C [32] 35.3% | viability, T/C [33] 19.9% | viability, T/C [34] 22.1% | viability, T/C [35] 15.6% | viability, T/C [36] 11.6%
7.16: pIC50 (second compound 3.16 µM)
7.19: pIC50 (second compound 0.316 µM)

CC1COCCN1c1cc(C2(O)CC3CCC(C2)O3)c2cnn(-c3ccn[nH]3)c2n1 (stereo not drawn) + CN(C)c1ccc(Nc2c3ccc(NC(=O)CCN4CCCC4)cc3nc3cc(NC(=O)CCN4CCCC4)ccc23)cc1
7.07: pIC50 (second compound 0.1 µM)
inactive: viability, T/C [1] 84.2% | viability, T/C [2] 43.3% | viability, T/C [3] 27% | viability, T/C [4] 25.3% | viability, T/C [5] 31.2% | viability, T/C [6] 20% | viability, T/C [7] 77.4% | viability, T/C [8] 45% | viability, T/C [9] 31.4% | viability, T/C [10] 25.1% | viability, T/C [11] 27.5% | viability, T/C [12] 18.4% | viability, T/C [13] 68.8% | viability, T/C [14] 42.7% | viability, T/C [15] 30.8% | viability, T/C [16] 27.8% | viability, T/C [17] 24.2% | viability, T/C [18] 19.6% | viability, T/C [19] 68.2% | viability, T/C [20] 39.5% | viability, T/C [21] 23.4% | viability, T/C [22] 26.6% | viability, T/C [23] 21.5% | viability, T/C [24] 19.5% | viability, T/C [25] 62.3% | viability, T/C [26] 38.5% | viability, T/C [27] 24.3% | viability, T/C [28] 22.6% | viability, T/C [29] 22.6% | viability, T/C [30] 15.6% | viability, T/C [31] 65.8% | viability, T/C [32] 37.6% | viability, T/C [33] 23.5% | viability, T/C [34] 22.9% | viability, T/C [35] 20.1% | viability, T/C [36] 15.7%
7.25: pIC50 (second compound 3.16 µM)
7.22: pIC50 (second compound 10 µM)
7.13: pIC50 (second compound 0.316 µM)
7.19: pIC50 (second compound 1 µM)
7.08: pIC50 (second compound 0.0316 µM)

O=C(c1cc(Cc2n[nH]c(=O)c3ccccc23)ccc1F)N1CCN(C(=O)C2CC2)CC1 + Cc1[nH]c2ccc(F)cc2c1-c1nc2c3cccnc3c3ncccc3c2[nH]1
< 5.00: pIC50 (second compound 0.0316 µM) | pIC50 (second compound 0.1 µM) | pIC50 (second compound 0.316 µM) | pIC50 (second compound 1 µM) | pIC50 (second compound 3.16 µM) | pIC50 (second compound 10 µM)
inactive: viability, T/C [1] 105% | viability, T/C [2] 97.4% | viability, T/C [3] 98.5% | viability, T/C [4] 103% | viability, T/C [5] 93.2% | viability, T/C [6] 80.3% | viability, T/C [7] 102% | viability, T/C [8] 96.8% | viability, T/C [9] 96.5% | viability, T/C [10] 99.8% | viability, T/C [11] 108% | viability, T/C [12] 76.9% | viability, T/C [13] 93.8% | viability, T/C [14] 95.1% | viability, T/C [15] 103% | viability, T/C [16] 111% | viability, T/C [17] 96.6% | viability, T/C [18] 74.8% | viability, T/C [19] 99.9% | viability, T/C [20] 97.6% | viability, T/C [21] 108% | viability, T/C [22] 100% | viability, T/C [23] 100% | viability, T/C [24] 69.2% | viability, T/C [25] 89.9% | viability, T/C [26] 96.4% | viability, T/C [27] 98.4% | viability, T/C [28] 99.6% | viability, T/C [29] 95.8% | viability, T/C [30] 75.2% | viability, T/C [31] 86.8% | viability, T/C [32] 86.6% | viability, T/C [33] 82.4% | viability, T/C [34] 101% | viability, T/C [35] 102% | viability, T/C [36] 73.5%

Cc1cccc(N(C)C(=O)C2C(O)CCN2c2nc(C)cc(C(F)(F)F)c2C#N)c1 (stereo not drawn) + CN(C)c1ccc(Nc2c3ccc(NC(=O)CCN4CCCC4)cc3nc3cc(NC(=O)CCN4CCCC4)ccc23)cc1
< 5.00: pIC50 (second compound 0.0316 µM) | pIC50 (second compound 0.1 µM) | pIC50 (second compound 0.316 µM) | pIC50 (second compound 1 µM) | pIC50 (second compound 3.16 µM)
5.40: pIC50 (second compound 10 µM)
inactive: viability, T/C [1] 97.4% | viability, T/C [2] 103% | viability, T/C [3] 104% | viability, T/C [4] 103% | viability, T/C [5] 107% | viability, T/C [6] 110% | viability, T/C [7] 108% | viability, T/C [8] 95.3% | viability, T/C [9] 91.5% | viability, T/C [10] 100% | viability, T/C [11] 98.7% | viability, T/C [12] 103% | viability, T/C [13] 92.7% | viability, T/C [14] 93.7% | viability, T/C [15] 88.7% | viability, T/C [16] 101% | viability, T/C [17] 94% | viability, T/C [18] 90.6% | viability, T/C [19] 85.8% | viability, T/C [20] 85.2% | viability, T/C [21] 76.2% | viability, T/C [22] 87.9% | viability, T/C [23] 84.9% | viability, T/C [24] 81.5% | viability, T/C [25] 99.2% | viability, T/C [26] 71% | viability, T/C [27] 77.2% | viability, T/C [28] 77.1% | viability, T/C [29] 91.2% | viability, T/C [30] 68% | viability, T/C [31] 82.1% | viability, T/C [32] 82.3% | viability, T/C [33] 74.3% | viability, T/C [34] 76% | viability, T/C [35] 53% | viability, T/C [36] 37.9%
